Test results reported in patent publication US12606541B2, “PPARg modulators and methods of use” (Eisai R&D Management Co., Ltd., priority 2020, dated 2026).
Where two headings read alike, the source gives them in different places.

Biological target: T1, His6-TEV-PPARγ-(234-505) (Homo sapiens, UniProt P37231)
T1 construct: The His6-TEV-PPARγ-(234-505) protein for assay was expressed and purified; TEV cleavage site (N); made in house
T1 sequence (P37231 234-505): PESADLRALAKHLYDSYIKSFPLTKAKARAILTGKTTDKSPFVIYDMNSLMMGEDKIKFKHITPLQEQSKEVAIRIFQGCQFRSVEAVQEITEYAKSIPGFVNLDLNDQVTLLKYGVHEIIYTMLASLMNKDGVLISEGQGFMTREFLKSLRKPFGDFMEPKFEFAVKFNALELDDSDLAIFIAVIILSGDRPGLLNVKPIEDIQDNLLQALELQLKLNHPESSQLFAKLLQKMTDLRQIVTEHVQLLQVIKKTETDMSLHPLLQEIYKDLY
Assay: TR-FRET Assay to Measure Co-R Peptide Recruitment to PPARγ
Assay type: biochemical
Protocol: TR-FRET Assay to Measure Co—R Peptide Recruitment to PPARγ
The 2× detection solution contained anti-6×His-Terbium antibody (CisBio) and FITC labeled Co—R peptide (SMRT-ID2 from New England Peptide) at final concentrations of 5 and 200 nM respectively.
In these assay plates, the positive control in column 24 contained 500 nM (final) T0070907 and the negative control in column 23 contained an identical volume of DMSO. Then, 5 μL of 2+ protein working stock or controls were added to the plate and incubated for 20 minutes at room temperature. Reagents additions were performed with either a Combi (Thermo) or Mantis (Formulatory) pipetting device. The incubation was followed by addition of 5 μL of the 2× detection solution. Plates were covered, centrifuged, and incubated for an additional hour. The TR-FRET data was recorded with an Envision plate reader (Perkin Elmer), using settings recommended by Thermo Fisher. The TR-FRET signal of the positive and negative control's recruitment of FITC-Co—R peptide was used to normalize the TR-FRET signal to percent response and to determine the assay Z prime. Experiments were performed in triplicate and analyzed in GraphPad Prism 7.

[1] = Co-R peptide recruitment to PPARγ, read-out: TR-FRET AC50
[2] = Co-R peptide (SMRT-ID2) recruitment, top final concentration 20 μM, read-out: TR-FRET i-Ag, AC50

Row | AC50 [1] | AC50 [2] | SMILES
1 | > 1000 nM | – | C[C@H]1CC[C@H](NC(=O)C2CCN(C(=O)c3cc(-c4cccnc4)n[nH]3)CC2)CC1
2 | > 1000 nM | – | CCC1CCC(NC(=O)C2CCN(C(=O)c3cc(-c4ccnc(OC)c4)[nH]n3)CC2)CC1 (stereo not drawn)
3 | > 1000 nM | – | COc1cc(-c2cc(C(=O)N3CCC(C(=O)N[C@H]4CC[C@H](C)CC4)CC3)n[nH]2)ccn1
4 | > 1000 nM | – | COc1cc(-c2cc(C(=O)N3CCC(C(=O)N[C@H]4CC[C@](O)(C(F)(F)F)CC4)CC3)n[nH]2)c(Cl)cn1
5 | > 1000 nM | – | COc1cc(-c2cc(C(=O)N3CCC(C(=O)NC4CCC(C)(O)CC4)CC3)n[nH]2)c(Cl)cn1 (stereo not drawn)
6 | > 1000 nM | – | COc1cc(-c2cc(C(=O)N3CCC(C(=O)NC45COC(C)(C4)C5)CC3)n[nH]2)c(Cl)cn1
7 | > 1000 nM | – | COc1cc(-c2cc(C(=O)N3CCC(C(=O)N[C@H]4CC[C@@](C)(O)CC4)CC3)n[nH]2)c(Cl)cn1
8 | > 1000 nM | – | COc1cc(-c2cc(C(=O)N3CCC(C(=O)NC(C)c4cnn(C)c4)CC3)n[nH]2)c(Cl)cn1 (stereo not drawn)
9 | > 1000 nM | – | COc1cc(-c2cc(C(=O)N3CCC(C(=O)NC45CCC(O)(CC4)C5)CC3)n[nH]2)c(F)cn1
10 | > 1000 nM | – | COc1cc(-c2cc(C(=O)N3CCC(C(=O)NC4CCC5(CCCN5)CC4)CC3)n[nH]2)c(F)cn1 (stereo not drawn)
11 | > 1000 nM | – | O=C(N[C@H]1CC[C@H](O)CC1)C1CCN(C(=O)c2cc(-c3ccncc3)[nH]n2)CC1
12 | > 1000 nM | – | C[C@H]1CC[C@H](NC(=O)C2CCN(C(=O)c3cc(-c4ccncc4)[nH]n3)CC2)CC1
13 | > 1000 nM | – | CCC1CCC(NC(=O)C2CCN(C(=O)c3cc(-c4ccncc4)[nH]n3)CC2)CC1 (stereo not drawn)
14 | > 1000 nM | – | O=C(NC1CCC(O)CC1)C1CCN(C(=O)c2cc(-c3ccncc3)[nH]n2)CC1 (stereo not drawn)
15 | > 1000 nM | – | N#C[C@H]1CC[C@@H](NC(=O)C2CCN(C(=O)c3cc(-c4ccncc4)[nH]n3)CC2)CC1
16 | > 1000 nM | – | C[C@H]1CC[C@@H](NC(=O)C2CCN(C(=O)c3cc(-c4ccncc4)[nH]n3)CC2)CC1
17 | > 1000 nM | – | CN1CCN(C(=O)C2CCN(C(=O)c3cc(-c4ccncc4)[nH]n3)CC2)CC1
18 | > 1000 nM | – | CN1CCCN(C(=O)C2CCN(C(=O)c3cc(-c4ccncc4)[nH]n3)CC2)CC1
19 | > 1000 nM | – | CC1CCC(NC(=O)C2CCN(C(=O)c3cc(-c4ccnc(C(=O)O)c4)[nH]n3)CC2)CC1 (stereo not drawn)
20 | > 1000 nM | – | O=C(N[C@H]1CC[C@@](O)(C(F)(F)F)CC1)C1CCN(C(=O)c2cc(-c3cc(OC4COC4)ncc3F)[nH]n2)C2(CC2)C1 (stereo partly drawn)
21 | > 1000 nM | – | COc1cc(-c2cc(C(=O)N3CC4CC3CC4C(=O)NC3CCC(O)(C(F)(F)F)CC3)n[nH]2)c(F)cn1 (stereo not drawn)
22 | > 1000 nM | – | COc1cc(-c2cc(C(=O)N3C[C@@H]4[C@H](C3)[C@H]4C(=O)NCc3cccc(Cl)c3)n[nH]2)c(F)cn1

Row | AC50 [1] | AC50 [2] | SMILES
23 | > 1000 nM | – | COc1cc(-c2cc(C(=O)N3CC[C@H](CNC(=O)[C@H]4C[C@@H](C)N[C@@H](C)C4)CC34CC4)n[nH]2)c(F)cn1
24 | > 1000 nM | – | COc1cc(-c2cc(C(=O)N3CC[C@H](C(=O)NCC45CC(CN4CC(C)(C)F)C5)CC34CC4)n[nH]2)c(F)cn1
25 | > 1000 nM | – | COc1cc(-c2cc(C(=O)N3CC[C@H](C(=O)NC4CCS(=N)(=O)CC4)CC34CC4)n[nH]2)c(F)cn1 (stereo partly drawn)
26 | > 1000 nM | – | O=C(N[C@H]1CC[C@H](c2ccccc2)CC1)C1CCN(C(=O)c2cc(-c3ccncc3)[nH]n2)CC1
27 | > 1000 nM | – | COc1cc(-c2cc(C(=O)N3CC[C@@H](C(=O)NC4CC[C@H](C(F)(F)F)N(C)C4)CC34CC4)n[nH]2)c(F)cn1 (mixture of isomers) [(7R)-4-[5-(5-fluoro-2-methoxypyridin-4-yl)-1H-pyrazole-3-carbonyl]-N-[(3RS,6R)-1-methyl-6-(trifluoromethyl)piperidin-3-yl]-4-azaspiro[2.5]octane-7-carboxamide]
28 | – | 373 nM | CC1CCC(NC(=O)C2CCN(C(=O)c3cc(-c4ccncc4Cl)[nH]n3)CC2)CC1 (mixture of isomers) [Example 109, 1-(5-(3-chloropyridin-4-yl)-1H-pyrazole-3-carbonyl)-N-(4-methylcyclohexyl)piperidine-4-carboxamide]
29 | – | 20 nM | COc1cc(-c2cc(C(=O)N3C(C)CC(C(=O)NCc4cccc(Cl)c4)CC3C)n[nH]2)c(Cl)cn1 (mixture of isomers) [Example 274, 1-(5-(5-chloro-2-methoxypyridin-4-yl)-1H-pyrazole-3-carbonyl)-N-(3-chlorobenzyl)-2,6-dimethylpiperidine-4-carboxamide]
30 | > 1000 nM | – | COc1cc(-c2cc(C(=O)N3C[C@H]4CC[C@@H]3CC4C(=O)NCc3cccc(Cl)c3)n[nH]2)c(F)cn1 (relative stereo) [(1R,4S,5R*)—N-[(3-chlorophenyl)methyl]-2-[5-(5-fluoro-2-methoxypyridin-4-yl)-1H-pyrazole-3-carbonyl]-2-azabicyclo[2.2.2]octane-5-carboxamide]
31 | > 1000 nM | – | COc1cc(-c2cc(C(=O)N3C[C@@H]4C[C@H]3CC4C(=O)NCc3cccc(Cl)c3)n[nH]2)c(F)cn1 (relative stereo) [(1S,4R,5R*)—N-[(3-chlorophenyl)methyl]-2-[5-(5-fluoro-2-methoxypyridin-4-yl)-1H-pyrazole-3-carbonyl]-2-azabicyclo[2.2.1]heptane-5-carboxamide]
32 | > 1000 nM | – | COc1cc(-c2cc(C(=O)N3CCC(C(=O)NC4CC[C@H]5[C@H](CCN5C)C4)CC34CC4)n[nH]2)c(F)cn1 (relative stereo) [(7R*)—N-[(3aR,7aS)-1-methyl-octahydro-1H-indol-5-yl]-4-[5-(5-fluoro-2-methoxypyridin-4-yl)-1H-pyrazole-3-carbonyl]-4-azaspiro[2.5]octane-7-carboxamide]
33 | > 1000 nM | – | COc1cc(-c2cc(C(=O)N3CC[C@@]4(C(=O)NCc5cccc(Cl)c5)C[C@@H]34)n[nH]2)c(Cl)cn1 (relative stereo) [rel-(1R,5R)-2-[5-(5-chloro-2-methoxypyridin-4-yl)-1H-pyrazole-3-carbonyl]-N-[(3-chlorophenyl)methyl]-2-azabicyclo[3.1.0]hexane-5-carboxamide]
34 | > 1000 nM | – | CCOc1cc(-c2cc(C(=O)N3CCC(C(=O)N[C@H]4CC[C@@](O)(C(F)(F)F)CC4)CC34CC4)n[nH]2)c(F)cn1 (single isomer, unassigned)
35 | > 1000 nM | – | CCOc1cc(-c2cc(C(=O)N3CCC(C(=O)N[C@H]4CC[C@@](OC)(C(F)(F)F)CC4)CC34CC4)n[nH]2)c(F)cn1 (single isomer, unassigned)
36 | > 1000 nM | – | Cc1cc(-c2cc(C(=O)N3CCC(C(=O)N[C@H]4CC[C@@](O)(C(F)(F)F)CC4)CC34CC4)n[nH]2)c([C@@H](C)O)cn1 (single isomer, unassigned)
37 | > 1000 nM | – | Cc1cc(-c2cc(C(=O)N3CCC(C(=O)N[C@H]4CC[C@@](O)(C(F)(F)F)CC4)CC34CC4)n[nH]2)c([C@H](C)O)cn1 (single isomer, unassigned)
38 | > 1000 nM | – | CC(C)Oc1cc(-c2cc(C(=O)N3CCC(C(=O)N[C@H]4CC[C@@](O)(C(F)(F)F)CC4)CC34CC4)n[nH]2)c(F)cn1 (single isomer, unassigned)
39 | > 1000 nM | – | COc1cc(-c2cc(C(=O)N3CCC(C(=O)N[C@H]4CC[C@@]5(CCO5)CC4)CC34CC4)n[nH]2)c(F)cn1 (single isomer, unassigned)
40 | > 1000 nM | – | CS(=O)(=O)CCN1CCN(C(=O)C2CCN(C(=O)c3cc(-c4ccncc4)[nH]n3)CC2)CC1 [1-(2-methanesulfonylethyl)-4-{1-[5-(pyridin-4-yl)-1H-pyrazole-3-carbonyl]piperidine-4-carbonyl}piperazine]
41 | > 1000 nM | – | CC1CCC(NC(=O)C2CCN(C(=O)c3cc(-c4ccnc(C#N)c4)[nH]n3)CC2)CC1 (stereo not drawn) [1-[5-(2-cyanopyridin-4-yl)-1H-pyrazole-3-carbonyl]-N-(4-methylcyclohexyl)piperidine-4-carboxamide]
42 | > 1000 nM | – | CC1CCC(NC(=O)C2CCN(C(=O)c3cc(-c4ccnc(OC5CC5)c4)[nH]n3)CC2)CC1 (stereo not drawn) [1-[5-(2-cyclopropoxypyridin-4-yl)-1H-pyrazole-3-carbonyl]-N-(4-methylcyclohexyl)piperidine-4-carboxamide]
43 | > 1000 nM | – | CC1CCC(NC(=O)C2CCN(C(=O)c3cc(-c4ccnc(C5CC5)c4)[nH]n3)CC2)CC1 (stereo not drawn) [1-[5-(2-cyclopropylpyridin-4-yl)-1H-pyrazole-3-carbonyl]-N-(4-methylcyclohexyl)piperidine-4-carboxamide]
44 | > 1000 nM | – | COc1nccc(-c2cc(C(=O)N3CCC(C(=O)NC4CCC(C)CC4)CC3)n[nH]2)c1C (stereo not drawn) [1-[5-(2-methoxy-3-methylpyridin-4-yl)-1H-pyrazole-3-carbonyl]-N-(4-methylcyclohexyl)piperidine-4-carboxamide]

Row | SMILES | AC50 [1] | AC50 [2]
45 | COc1cc(-c2cc(C(=O)N3C[C@H]4C[C@@H]3CC4C(=O)N[C@H]3CC[C@@](O)(C(F)(F)F)CC3)n[nH]2)c(F)cn1 (single isomer, unassigned) | > 1000 nM | –
